Values after ≈ are worked out from the molar mass of the structure shown.

For the data set the following is noted: buffer; pH 7.4; 200.0 µM.
Compound `COc1ccc2oc(C(=O)OCC(=O)N3CCCCC3C)c(C)c2c1` (stereo unspecified) showed a kinetic solubility of more than 51.8 µg/mL. To `NC(=O)Cn1nc(C(F)(F)F)c2c1CCCC2` belongs more than 37.1 µg/mL. `Cc1nc(SC(C)C(=O)NC2CCCCC2C)c2c(C)c(C)sc2n1` (stereo unspecified) came in with a solubility (kinetic) of less than 0.3 µg/mL.

Take `COc1ccc(OC)c([N+](=O)[O-])c1C(N)=O`: the solubility (kinetic) is more than 33.9 µg/mL.

The compound `CCOC(=O)c1nn(-c2ccc3c(c2)OCCO3)cc1O` showed a kinetic solubility of more than 43.5 µg/mL. For `O=C(NCC(O)CO)c1csc(Nc2cccc3ccccc23)n1` (stereo unspecified) the value was 38.5 µg/mL (≈ 112 µM); for `CSCCC(NC(=O)c1ccccc1Cl)C(=O)NCCc1ccccn1` (stereo unspecified), more than 58.8 µg/mL; for `CCC1CN(C(=O)Nc2cccc(C)c2)c2cc(C)ccc2O1` (stereo unspecified), 7.5 µg/mL (≈ 24.2 µM). Turning to `CSCc1ccc(C(=O)OCc2nc3ccccc3s2)o1`, the solubility (kinetic) is 13.3 µg/mL (≈ 41.6 µM). Compared with the last compound, the solubility kinetic is about 1.8-fold higher. To `CSCC[C@H](NC(=O)Nc1ccccc1C)C(=O)O` belongs more than 42.4 µg/mL; to `CCC1CO/C(=C(\C(=C(Cl)Cl)N2CCOCC2)[N+](=O)[O-])N1` (stereo unspecified), more than 50.7 µg/mL. For `O=C1NC(=O)C(c2ccc(Cl)cc2)N1` (stereo unspecified) the value was more than 31.6 µg/mL. For `CC1(C)COCN1C(=O)c1ccc(C#N)cc1` the value was more than 34.5 µg/mL; for `Cc1cccc(NC(=S)N(CCc2ccncc2)C(C)C)c1C`, 32.5 µg/mL (≈ 99.2 µM); for `O=[N+]([O-])c1ccc(N2CCN(c3ccc(F)cc3)CC2)cn1`, 3.5 µg/mL (≈ 11.6 µM).

`O=C(CN1CCCCC1)NNC(=O)c1ccc([N+](=O)[O-])cc1` yielded a solubility (kinetic) of more than 45.9 µg/mL. Regarding `Cc1ccccc1CN(C)CC(=O)Nc1c(C)cccc1C(C)C`, the solubility (kinetic) amounted to 12.1 µg/mL (≈ 37.3 µM). To `Cc1ccc(C(=O)O)cc1NC(=O)C1CCN(S(=O)(=O)c2ccc3c(c2)OCCO3)CC1` belongs more than 69.1 µg/mL; to `Cc1ccc(NC(=O)c2sc(C)nc2C)c(C)c1`, more than 39.1 µg/mL.

Compound `CCC(=O)OCC(=O)Nc1cc([N+](=O)[O-])ccc1Cl` registered a kinetic solubility of more than 43 µg/mL. For `NS(=O)(=O)c1ccc(CNC(=O)/C=C/c2cccc([N+](=O)[O-])c2)cc1` the value was 14.2 µg/mL (≈ 39.3 µM).

`Cc1ccc(OC(C)C(=O)N2CC(=O)Nc3ccccc32)cc1` (stereo unspecified) had a solubility (kinetic) of more than 46.6 µg/mL. `COc1cccc(OC)c1C(=O)Nc1ccc(N2CCCC2)cc1`: the solubility (kinetic) stood at 46.9 µg/mL (≈ 144 µM). For `O=S(=O)(NCCC1=CCCCC1)c1ccccc1Cl` the value was 22 µg/mL (≈ 73.4 µM). To `O=C(NCc1cccs1)C1CC1` belongs 26.5 µg/mL (≈ 146 µM); to `ClCc1cc2ccccc2nc1Cl`, 6.5 µg/mL (≈ 30.6 µM); to `O=C(NCc1ccc2c(c1)OCO2)c1sccc1Br`, 48.4 µg/mL (≈ 142 µM). To `CCCOc1nc2ccccc2cc1/C=C/C(=O)O` belongs 8.3 µg/mL (≈ 32.3 µM); to `Cc1onc(C(=O)NCCc2ccccc2)c1[N+](=O)[O-]`, more than 41.3 µg/mL; to `COC(=O)C1=Nc2ccccc2/C1=C\c1c(O)n(C)c(=O)n(C)c1=O`, more than 51.2 µg/mL. The compound `O=[N+]([O-])/C(=C\Nc1ccc(F)cc1F)S(=O)(=O)c1ccccc1` returned a solubility (kinetic) of more than 51 µg/mL. For `CCCN(CCC)C(=S)NC1CC2C=CC1C2` (stereo unspecified) the value was more than 37.9 µg/mL; for `O=C(O)CCCn1c(=O)c2cccn2c2ccc(F)cc21`, more than 43.2 µg/mL; for `COC(=O)c1sccc1NC(=O)CNC(=O)c1ccccc1`, more than 47.8 µg/mL. To `O=C(OCC(=O)N1CCc2ccccc21)c1ccc[nH]c1=O` belongs 8.6 µg/mL (≈ 28.8 µM).

In turn, `COc1cc2c(cc1OC)CN(C(=O)CSc1ccccc1C)CC2` displayed a kinetic solubility of more than 53.6 µg/mL.

As for `COc1ccccc1OCC(=O)Nc1ccc2c(c1)OCCO2`, the kinetic solubility turned out to be 39.1 µg/mL (≈ 124 µM). Compound `NC(=O)c1ccc(CSc2nc3ccccc3s2)cc1` displayed a solubility (kinetic) of 1.4 µg/mL (≈ 4.66 µM). For `CCOCCCNC(=O)/C(C#N)=C/c1ccc(C(=O)OC)cc1` the value was 19.1 µg/mL (≈ 60.4 µM); for `CN1C(=O)C2(OCCCO2)c2cc(Cl)ccc21`, more than 38.1 µg/mL.

Turning to `CC(N=C1NS(=O)(=O)c2ccccc21)C(=O)NCc1ccc(F)cc1` (stereo unspecified), the solubility (kinetic) is more than 54.2 µg/mL.

As to `Cc1c(C(=O)CN2CCCC(C)(C)C2)c2ccccc2n1C`, the solubility (kinetic) was more than 44.8 µg/mL. To `Cc1cc(SCc2ccccc2F)nc(=O)[nH]1` belongs more than 37.5 µg/mL. For `COc1ccc(C(=O)N2CC3(C)C4CCC3(C)C2(C#N)C4)cc1OC` (stereo unspecified) the value was 45 µg/mL (≈ 132 µM). For `COc1ccc(C(=O)n2cnc3ccccc32)cc1[N+](=O)[O-]` the value was 29.4 µg/mL (≈ 98.9 µM). Turning to `CCCCOc1ccc(/C(O)=C(\C#N)c2nc3ccccc3[nH]2)cc1`, the solubility (kinetic) was less than 0.2 µg/mL. The compound `COc1ccc(CCC(=O)NCCc2cnc[nH]2)cc1` had a solubility (kinetic) of 35.2 µg/mL (≈ 129 µM). For `CCCn1c(SCC(=O)NC)nc2sc3c(c2c1=O)CCC3` the value was 5.5 µg/mL (≈ 16.3 µM); for `COc1cccc(NC2=NCCCCC2)c1`, more than 32.7 µg/mL; for `COc1ccc(OC)c(-n2c(C)cc(C=O)c2C)c1`, more than 38.9 µg/mL. For `Cc1nnc(SCC(=O)N(C)C2CCCCC2)n1C` the value was more than 42.4 µg/mL; for `NC(=O)c1cc([N+](=O)[O-])ccc1NCCc1ccccc1`, less than 0.2 µg/mL; for `c1ccc(N2CCN(c3nc4ccccc4[nH]3)CC2)nc1`, 41.7 µg/mL (≈ 149 µM). To `Cc1cc(C)c(NC(=O)Nc2ccccc2C)c(Cl)c1` belongs 0.8 µg/mL (≈ 2.77 µM); to `O=C(/C=C/c1ccco1)OCC(=O)N1CCCCC1`, more than 39.5 µg/mL; to `O=C(Nc1nccs1)C1CC=CCC1` (stereo unspecified), 22.7 µg/mL (≈ 109 µM).

The compound `Nc1cccc(S(=O)(=O)Nc2ccc(Br)cc2)c1` had a kinetic solubility of more than 49.1 µg/mL. Take `COc1ccccc1N1CC=C(c2cccc([N+](=O)[O-])c2)NC1=O`: the kinetic solubility worked out at 39.8 µg/mL (≈ 122 µM). Regarding `COc1ccc2oc(C(=O)Nc3ccccn3)c(C)c2c1`, the kinetic solubility was 22 µg/mL (≈ 77.9 µM). To `CC(=O)N1CCCC1(C(=O)O)c1ccccc1` (stereo unspecified) belongs 33.8 µg/mL (≈ 145 µM). For `O=C1CS/C(=N/N=C/c2ccncc2)N1` the value was more than 33 µg/mL; for `CC1CCC2(CC1)NC(=O)N(CC(=O)Nc1cc(S(=O)(=O)N3CCCC3)ccc1Cl)C2=O` (stereo unspecified), 1.4 µg/mL (≈ 2.9 µM).

`Cc1ccccc1OCC(=O)OCC(=O)NCC1CCCCC1` registered a solubility (kinetic) of 7.6 µg/mL (≈ 23.8 µM). The compound `Cc1cc(C)cc(C(=O)NCc2ccc3c(c2)OCO3)c1` yielded a solubility (kinetic) of 5.8 µg/mL (≈ 20.5 µM).

`COc1ccc(C(=O)c2sc(Nc3ccccc3)nc2N)cc1`: the solubility (kinetic) was 2.2 µg/mL (≈ 6.76 µM).

As for `O=S1(=O)CCN(Cc2csc(-c3cccs3)n2)CC1`, the solubility (kinetic) was more than 47.2 µg/mL.

On to `Cc1cc(C)c(NC(=O)C2CCCO2)c(C)c1` (stereo unspecified), for which the kinetic solubility is more than 35 µg/mL. For `O=C(NC1CCCCC1)C1CCC(=O)N(C2CC2)C1` (stereo unspecified) the value was more than 39.7 µg/mL; for `N#Cc1ccc(COC(=O)c2cccnc2Cl)cc1`, 26.9 µg/mL (≈ 98.6 µM).

`O=C(/C=C/c1ccccc1)Oc1coc(CSc2ncccn2)cc1=O` gave a kinetic solubility of 10.2 µg/mL (≈ 27.8 µM). This solubility kinetic lies about 2.6-fold lower than the previous one. In the case of `Nc1nc(SCC(=O)Nc2cccc(F)c2)n[nH]1`, the solubility (kinetic) is more than 40.1 µg/mL. To `O=C(Nc1ccc(F)cc1)C1CC(=O)N(Cc2ccco2)C1` (stereo unspecified) belongs more than 45.3 µg/mL.

`Cc1cc(=O)cc(C)n1-c1ccc(Cl)cc1` had a kinetic solubility of 34.8 µg/mL (≈ 149 µM). For `O=C(N/N=C/c1cccnc1)c1cccs1` the value was more than 34.7 µg/mL; for `N#Cc1ccccc1COC(=O)CCC(=O)c1cccs1`, more than 44.9 µg/mL; for `CCCCNC(=O)C1CCN(S(=O)(=O)N2CCOCC2)CC1`, more than 50 µg/mL.

The record behind these values is PubChem BioAssay AID1996.
